{"source": "patent US4886793A", "about": "“Penem derivatives” (Farmitalia Carlo Erba, S.r.l., priority 1986, dated 1989)", "key": {"Pharmacokinetics in rat": {"assay": "Pharmacokinetics in rat", "conditions": "in vivo", "description": "(§1) In vivo data for (5R,6S)-6-[(1R)-hydroxy ethyl]-2-[4-(1-pyridinio)methylphenyl]oxymethylpenem-3-carboxylate (example 1, Compound 5,FCE 24386)"}, "Escherichia coli G II": {"test_system": "Escherichia coli G II", "assay": "Experimental infection in mice, Escherichia coli G II", "format": "in vivo, Escherichia coli G II (infected mice)", "conditions": "intraperitoneal infection, 3 × LD50 challenge, treatments at 30, 90 and 360 minutes after infection", "experimental": "(§2) ^1 Intraperitoneal infection in mice with a 3 × LD50\n(§3) challenge; treatments at 30, 90 and 360 minutes after infection."}, "[1]": {"assay": "Pharmacokinetics in mouse", "conditions": "in vivo", "description": "as §1"}, "[2]": {"test_system": "Staphilococcus aureus Smith", "assay": "Experimental infection in mice, Staphilococcus aureus Smith", "format": "in vivo, Staphilococcus aureus Smith (infected mice)", "conditions": "Mus musculus, intraperitoneal infection, 3 × LD50 challenge, treatments at 30, 90 and 360 minutes after infection", "experimental": "as §2, §3"}}}
{"smiles": "C[C@@H](O)[C@H]1C(=O)N2C(C(=O)[O-])=C(COc3ccc(C[n+]4ccccc4)cc3)S[C@H]12", "note": "[Compound 5, (5R,6S)-6-[(1R)-hydroxyethyl]-2-[4-(1-pyridinio)methylphenyl]oxymethylpenem-3-carboxylate]", "values": [{"measurement": "AUC", "setting": "Pharmacokinetics in rat", "value": 103000, "unit": "ng·h/mL"}, {"measurement": "half-life", "setting": "Pharmacokinetics in rat; read-out: t 1/2β", "value": 28, "unit": "min"}, {"measurement": "ED50", "setting": "Escherichia coli G II", "value": 1.55, "unit": "mg/kg"}, {"measurement": "Fa", "setting": "[1]; sc, Mouse, s.c., read-out: % Absorption s.c.", "value": 100, "unit": "%"}, {"measurement": "AUC", "setting": "[1]; mouse", "value": 56000, "unit": "ng·h/mL"}, {"measurement": "half-life", "setting": "[1]; mouse, read-out: t 1/2β", "value": 27, "unit": "min"}, {"measurement": "ED50", "setting": "[2]", "value": "< 0.032", "unit": "mg/kg"}]}
